Results as given in patent publication US7550492B2, “Benzo[1,2,5]thiadiazole compounds” (Janssen Pharmaceutica N.V., priority 2003, dated 2009).

Legend:
CCK2 receptor [1] = target: T1, CCK2 receptor (Cavia porcellus, UniProt H0VZC5); assay: Guinea-Pig Gastric Corpeal Muscle Assay (isolated muscle strip, pentagastrin-induced contraction); assay type: cell-based; settings: CCK1 receptors blocked
T1 construct: strips of muscle were dissected and suspended in isolated tissue organ baths; from tissue; host or cells: guinea-pig gastric corpeal muscle strips
T1 sequence (H0VZC5 1-426): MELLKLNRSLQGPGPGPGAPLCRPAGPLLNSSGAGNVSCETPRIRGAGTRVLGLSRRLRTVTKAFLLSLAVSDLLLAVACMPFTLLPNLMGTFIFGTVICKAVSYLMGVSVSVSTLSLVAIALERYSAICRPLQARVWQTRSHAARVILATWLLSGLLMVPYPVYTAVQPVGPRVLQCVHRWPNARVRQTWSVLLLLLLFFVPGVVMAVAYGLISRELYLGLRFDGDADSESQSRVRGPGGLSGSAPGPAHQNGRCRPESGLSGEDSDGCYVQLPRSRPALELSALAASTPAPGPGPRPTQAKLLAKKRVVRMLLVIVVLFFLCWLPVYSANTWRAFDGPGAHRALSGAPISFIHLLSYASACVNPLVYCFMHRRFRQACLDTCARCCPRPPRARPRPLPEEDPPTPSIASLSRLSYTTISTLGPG
Experimental: Guinea-Pig Gastric Corpeal Muscle Assay
CCK2 receptor-mediated muscle contraction was measured in an isolated muscle-strip assay of guinea-pig gastric corpeal muscle according to the methods described by Roberts et al. (S. P. Roberts, E. A. Harper, G. F. Watt, V. P. Gerskowitch, R. A. Hull, N. P. Shankley, and J. W. Black, Br. J. Pharmacol., 1996, 118(7):1779-1789). In brief, strips of muscle were dissected and suspended in isolated tissue organ baths for isotonic muscle contraction recording. The baths, containing Krebs-Henseleit solution, were maintained at 24° C. and gassed continuously with 95% O2 and 5% CO2. CCK1 receptors known to be present in this assay were blocked using a selective concentration of a suitable CCK1 receptor antagonist (e.g. 2-NAP). The effectiveness of the test compounds was assessed by measuring their effect on contractile concentration-response curves obtained using a well-characterized surrogate for the hormone gastrin (pentagastrin).

CCK2 receptor [2] = target: T2, CCK2 receptor (Homo sapiens, UniProt P32239); assay: Binding Assay: competition with [125I]-BH-CCK-8S in HEKZFP cell membranes; settings: 60 min at 21±3° C., Cheng-Prusoff
T2 construct: Membranes were prepared from the HEKZFP cells after induction; endogenous in cells
T2 sequence (P32239 1-447): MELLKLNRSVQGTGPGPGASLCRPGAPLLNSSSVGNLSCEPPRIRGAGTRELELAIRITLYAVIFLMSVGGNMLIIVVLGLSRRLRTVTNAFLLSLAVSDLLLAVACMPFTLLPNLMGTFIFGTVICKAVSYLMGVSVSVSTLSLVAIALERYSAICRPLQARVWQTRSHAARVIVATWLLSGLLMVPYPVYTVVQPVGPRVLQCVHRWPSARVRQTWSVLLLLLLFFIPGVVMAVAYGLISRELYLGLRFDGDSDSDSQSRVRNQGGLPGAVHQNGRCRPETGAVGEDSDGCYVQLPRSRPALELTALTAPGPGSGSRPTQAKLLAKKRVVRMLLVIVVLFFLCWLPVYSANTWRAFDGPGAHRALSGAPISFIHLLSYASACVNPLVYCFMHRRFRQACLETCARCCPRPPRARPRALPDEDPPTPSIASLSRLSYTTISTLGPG
Experimental: Zinc Finger Proteins (ZFP) specific for the CCK2R gene were identified by Sangamo Biosciences. The ZFP domain was fused with the herpes simplex virus VP16 activation domain, and the fusion protein was subsequently cloned into the pcDNA3 mammalian expression vector (Invitrogen, San Diego, Calif.). Tet-inducible cell lines expressing the coding region from the ZFP vector were created using the T-REx-293™ cell line (Invitrogen). After 2 weeks of selection in culture medium containing […] Zeocin (Invitrogen), sixty drug-resistant stable clones were isolated and analyzed for ZFP expression as well as CCK2R induction upon addition of doxycycline to the culture medium. The cell line with the most appropriate CCK2R ZFP construct was used in all further assays and was termed the HEKZFP cell line.
HEKZFP cells were grown in DMEM supplemented with L-glutamine (2 mM), penicillin (50 units/mL) and streptomycin (50 μg/mL) and 10% FBS (v/v). HEKZFP cells were treated with […] doxycycline (Sigma-Aldrich, MO; USA) for 2 days to de-repress the tet-regulated expression of the CCK2 receptor selective zinc finger proteins and were harvested using a rubber cell scraper.
Membranes were prepared from the HEKZFP cells after induction. Frozen cell pellets (−40° C.) were thawed in 14 mL of buffer A (10 mM HEPES, 130 mM NaCl, 4.7 mM KCl, 5 mM MgCl, 1 mM EGTA and 15.4 mg/100 mL bacitracin at pH 7.2), adapted from E. A. Harper et al. (Br. J. Pharmacol. (1996) 118(7):1717-1726). The thawed pellets were homogenized using a Polytron PT-10 (7×1 s). The homogenates were centrifuged for 5 min at 1500 rpm (600×g), and the resulting pellets were discarded. The supernatants were re-centrifuged in order to collect the receptor-membrane pellets (25 min 15,000 rpm; 39,000×g), which were re-suspended in buffer A.
All assays were conducted in 96-well plate (GF/B millipore filter plates) using buffer A. For the optimal cell number determination experiments, cells in concentrations ranging from 2.5×10^5 to 12.5×10^5 cells/well were incubated with 20 pM [^125I]-BH-CCK-8S (50 μL 60 pM) solution) in a total volume of 150 μL. Total binding of [^125I]-BH-CCK-8S was determined in the presence of 15 μL of buffer A. Non-specific binding of [^125I]-BH-CCK-8S was determined in the presence of 15 μL of 10 μM YF476, a CCK-2 receptor selective antagonist that is structurally unrelated to the radioligand [^125I]-BH-CCK-8S. The assay preparation was incubated for 1 h at 21±3° C., and then the assay was terminated by rapid filtration of the preparation under reduced pressure. The loaded filters were washed three times using undiluted PBS (100 μL), and then 100 μL of scintillation fluid was added to the filter plate. Bound radioactivity was determined using a Topcount (Packard BioScience, Meriden, Conn.) with a count time of 1 min. From these experiments a cell concentration of 1 pellet in 15 mL of buffer was chosen for use in other assays. To validate the radioligand concentration and incubation time for the assay, saturation and kinetic binding studies were also conducted (see M. F. Morton, The Pharmacological Characterization of Cholecystokinin Receptors in the Human Gastrointestinal Tract. PhD Thesis, University of London, 2000). […] The assay was then terminated according to the procedure outlined above.
The pKi values were determined using the equation of Y.-C. Cheng and W. H. Prusoff (Biochem. Pharmacol., 1973, 22(23):3099-3108):
To circumvent problems associated with computer-assisted data analysis of compounds with low affinity, the data obtained in the current study were weighted according to a method described by Morton. In brief, 100% and 0% specific binding were defined independently using total binding and binding obtained in the presence of a high concentration of the reference antagonist, 2-NAP.

- pK8 value (CCK2 receptor [1]; antagonism of pentagastrin concentration-response curves, 24° C.): 8.8
- behaviour in the muscle contraction assay (CCK2 receptor [1]; pentagastrin concentration-response curves): competitive antagonist
- pKi (CCK2 receptor [2]): 7.6
SMILES: O=C(c1ccc(Br)cc1NS(=O)(=O)c1cccc2nsnc12)N1CCCCC1 [Example 5, Benzo[1,2,5]thiadiazole-4-sulfonic acid [5-bromo-2-(piperidine-1-carbonyl)-phenyl]-amide]
